Results reported in PubChem BioAssay AID330 (DTP/NCI, 2004).
Where “and” joins values, the source holds several entries; their conditions need not be identical. Equal entries are not always repeated. Toxic doses and inconclusive results are not listed.

Tested on: P388 leukemia ip, CD2F1 mice, survival T/C
Assay: NCI In Vivo Anticancer Drug Screen. Data for tumor model P388 Leukemia (intraperitoneal) in CD2F1 (CDF1) mice
Conditions: endpoint: median survival time, higher = longer survival
Method in brief: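 Mice carrying the transplanted tumor received test compound or vehicle. Survival was recorded in each group, and the value is the treated-group measurement divided by that of the vehicle-treated control group.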

[1] = dose: 60.0 mg/kg/injection, schedule: Q01DX005 (ip), vehicle: Klucel (hydroxypropylcellulose) (HPC)
[2] = dose: 120.0 mg/kg/injection, schedule: Q01DX005 (ip), vehicle: Klucel (hydroxypropylcellulose) (HPC)
[3] = dose: 240.0 mg/kg/injection, schedule: Q01DX005 (ip), vehicle: Klucel (hydroxypropylcellulose) (HPC)
[4] = dose: 50.0 mg/kg/injection, schedule: Q01DX005 (ip), vehicle: saline with Tween-80
[5] = dose: 25.0 mg/kg/injection, schedule: Q01DX009 (ip), vehicle: saline with Tween-80
[6] = dose: 50.0 mg/kg/injection, schedule: Q01DX009 (ip), vehicle: saline with Tween-80

Question: What does the source list for `[Br][Pt+2][Br].[NH-]C1CCCC1[NH-]` (centres undefined)?
Answer: T/C (dose: 12.5 mg/kg/injection, schedule: Q04DX002 (ip), vehicle: saline with Tween-80): 164 % of control; T/C (dose: 25.0 mg/kg/injection, schedule: Q04DX002 (ip), vehicle: saline with Tween-80): 197 % of control and 174 % of control; T/C (dose: 50.0 mg/kg/injection, schedule: Q04DX002 (ip), vehicle: saline with Tween-80): 93 % of control and 212 % of control

Question: Which results are given for `CCCC(=O)OC1C=C2N3C(=O)C4CC56C(=CC(OC(C)=O)C7OC75)N4C(=O)C3CC26C2OC12` (centres undefined)?
Answer: T/C (dose: 0.13 mg/kg/injection, schedule: Q01DX005 (ip), vehicle: Klucel (hydroxypropylcellulose) (HPC)): 100 % of control; T/C (dose: 0.25 mg/kg/injection, schedule: Q01DX005 (ip), vehicle: Klucel (hydroxypropylcellulose) (HPC)): 100 % of control; T/C (dose: 0.5 mg/kg/injection, schedule: Q01DX005 (ip), vehicle: Klucel (hydroxypropylcellulose) (HPC)): 100 % of control; T/C (dose: 1.0 mg/kg/injection, schedule: Q01DX005 (ip), vehicle: Klucel (hydroxypropylcellulose) (HPC)): 107 % of control; T/C (dose: 2.0 mg/kg/injection, schedule: Q01DX005 (ip), vehicle: Klucel (hydroxypropylcellulose) (HPC)): 99 % of control and 103 % of control; T/C (dose: 4.0 mg/kg/injection, schedule: Q01DX005 (ip), vehicle: Klucel (hydroxypropylcellulose) (HPC)): 96 % of control

Question: How did the T/C (dose: 0.1 mg/kg/injection, schedule: Q01DX009 (ip), vehicle: saline with Tween-80) turn out when `CCCCCCCCCCCCCCP(I)(N(C)C)(N(C)C)N(C)C` was run?
Answer: 106 % of control

Question: What about the T/C (dose: 0.19 mg/kg/injection, schedule: Q01DX009 (ip), vehicle: saline with Tween-80) of the same compound?
Answer: 113 % of control

Question: And the T/C (dose: 0.38 mg/kg/injection, schedule: Q01DX009 (ip), vehicle: saline with Tween-80)?
Answer: 117 % of control

Question: What does the source list for `N#C[C@H](OC1OC(COC2OC(CO)C(O)C(O)C2O)C(O)C(O)C1O)c1ccccc1` (some centres undefined)?
Answer: T/C (dose: 6.25 mg/kg/injection, schedule: Q01DX009 (oral), vehicle: water): 91 % of control; T/C (dose: 12.5 mg/kg/injection, schedule: Q01DX009 (oral), vehicle: saline): 98 % of control; T/C (dose: 12.5 mg/kg/injection, schedule: Q01DX009 (oral), vehicle: water): 95 % of control; T/C (dose: 25.0 mg/kg/injection, schedule: Q01DX009 (ip), vehicle: saline): 100 % of control; T/C (dose: 25.0 mg/kg/injection, schedule: Q01DX009 (ip), vehicle: water): 105 % of control; T/C (dose: 25.0 mg/kg/injection, schedule: Q01DX009 (oral), vehicle: saline): 115 % of control; T/C (dose: 25.0 mg/kg/injection, schedule: Q01DX009 (oral), vehicle: water): 93 % of control; T/C (dose: 50.0 mg/kg/injection, schedule: Q01DX009 (ip), vehicle: saline): 100 % of control and 112 % of control; T/C (dose: 50.0 mg/kg/injection, schedule: Q01DX009 (ip), vehicle: water): 97 % of control; T/C (dose: 50.0 mg/kg/injection, schedule: Q01DX009 (oral), vehicle: saline): 118 % of control; T/C (dose: 50.0 mg/kg/injection, schedule: Q01DX009 (oral), vehicle: suspension in saline): 104 % of control; T/C (dose: 50.0 mg/kg/injection, schedule: Q01DX009 (oral), vehicle: water): 96 % of control; T/C (dose: 100.0 mg/kg/injection, schedule: Q01DX009 (ip), vehicle: saline): 104 % of control and 107 % of control; T/C (dose: 100.0 mg/kg/injection, schedule: Q01DX009 (ip), vehicle: water): 100 % of control; T/C (dose: 100.0 mg/kg/injection, schedule: Q01DX009 (oral), vehicle: saline): 101 % of control; T/C (dose: 100.0 mg/kg/injection, schedule: Q01DX009 (oral), vehicle: suspension in saline): 100 % of control and 107 % of control; T/C (dose: 100.0 mg/kg/injection, schedule: Q01DX009 (oral), vehicle: water): 105 % of control and 93 % of control; T/C (dose: 200.0 mg/kg/injection, schedule: Q01DX009 (ip), vehicle: saline): 100 % of control and 109 % of control; T/C (dose: 200.0 mg/kg/injection, schedule: Q01DX009 (ip), vehicle: water): 101 % of control; T/C (dose: 200.0 mg/kg/injection, schedule: Q01DX009 (oral), vehicle: saline): 100 % of control; T/C (dose: 200.0 mg/kg/injection, schedule: Q01DX009 (oral), vehicle: water): 102 % of control and 104 % of control; T/C (dose: 400.0 mg/kg/injection, schedule: Q01DX009 (ip), vehicle: saline): 102 % of control and 109 % of control; T/C (dose: 400.0 mg/kg/injection, schedule: Q01DX009 (ip), vehicle: water): 100 % of control; T/C (dose: 400.0 mg/kg/injection, schedule: Q01DX009 (oral), vehicle: suspension in saline): 100 % of control; T/C (dose: 800.0 mg/kg/injection, schedule: Q01DX009 (ip), vehicle: saline): 102 % of control and 108 % of control; T/C (dose: 800.0 mg/kg/injection, schedule: Q01DX009 (ip), vehicle: water): 102 % of control

Question: For `COC(=O)NN(C(=O)OC)C1CCCC2C1c1ccc3ccccc3c1N(C(=O)OC)N2C(=O)OC` (centres undefined), which T/C [1] is on record?
Answer: 107 % of control

Question: And the T/C [2]?
Answer: 100 % of control

Question: What about the T/C [3] of the same compound?
Answer: 109 % of control

Question: For `Cc1nn(C(=O)c2cccnc2)c(-c2ccccc2)c1N=Nc1ccc(S(=O)(=O)N=C(N)N)cc1`, which T/C (dose: 3.12 mg/kg/injection, schedule: Q01DX005 (ip), vehicle: saline with Tween-80) is on record?
Answer: 98 % of control

Question: What about the T/C (dose: 6.25 mg/kg/injection, schedule: Q01DX005 (ip), vehicle: saline with Tween-80) of the same compound?
Answer: 95 % of control

Question: What about the T/C (dose: 12.5 mg/kg/injection, schedule: Q01DX005 (ip), vehicle: saline with Tween-80) of the same compound?
Answer: 105 % of control and 86 % of control

Question: And the T/C [4]?
Answer: 89 % of control

Question: Which T/C (dose: 1.8 mg/kg/injection, schedule: Q01DX005 (ip), vehicle: saline) does the source give for `COc1cc(C2c3cc4c(cc3OC(C)(OC)C2C)OCO4)cc(OC)c1OC` (centres undefined) here?
Answer: 103 % of control

Question: What about the T/C (dose: 3.75 mg/kg/injection, schedule: Q01DX005 (ip), vehicle: saline) of the same compound?
Answer: 98 % of control

Question: And the T/C (dose: 7.5 mg/kg/injection, schedule: Q01DX005 (ip), vehicle: saline)?
Answer: 93 % of control

Question: And the T/C (dose: 15.0 mg/kg/injection, schedule: Q01DX005 (ip), vehicle: saline)?
Answer: 91 % of control

Question: And the T/C (dose: 30.0 mg/kg/injection, schedule: Q01DX005 (ip), vehicle: saline)?
Answer: 89 % of control

Question: And the T/C (dose: 60.0 mg/kg/injection, schedule: Q01DX005 (ip), vehicle: saline)?
Answer: 102 % of control and 86 % of control

Question: And the T/C (dose: 120.0 mg/kg/injection, schedule: Q01DX005 (ip), vehicle: saline)?
Answer: 86 % of control

Question: What about the T/C (dose: 240.0 mg/kg/injection, schedule: Q01DX005 (ip), vehicle: saline) of the same compound?
Answer: 92 % of control

Question: For `CC1=C/C(=C(\c2cc(C)c(O)c(C(=O)O)c2)c2c(Cl)cccc2Cl)C=C(C(=O)O)C1=O`, which T/C [4] is on record?
Answer: 103 % of control

Question: What about the T/C (dose: 100.0 mg/kg/injection, schedule: Q01DX005 (ip), vehicle: saline with Tween-80) of the same compound?
Answer: 100 % of control

Question: What about the T/C (dose: 200.0 mg/kg/injection, schedule: Q01DX005 (ip), vehicle: saline with Tween-80) of the same compound?
Answer: 100 % of control

Question: `CC(=O)C(CCCn1c(=O)c2c(ncn2C)n(C)c1=O)CCCn1c(=O)c2c(ncn2C)n(C)c1=O` was tested. Which T/C [1] did it give?
Answer: 102 % of control

Question: What about the T/C [2] of the same compound?
Answer: 99 % of control

Question: What about the T/C [3] of the same compound?
Answer: 104 % of control

Question: How did the T/C (dose: 15.0 mg/kg/injection, schedule: Q01DX005 (ip), vehicle: Klucel (hydroxypropylcellulose) (HPC)) turn out when `OC(c1ccco1)c1nc2ccccc2s1` (centres undefined) was run?
Answer: 106 % of control

Question: What about the T/C (dose: 30.0 mg/kg/injection, schedule: Q01DX005 (ip), vehicle: Klucel (hydroxypropylcellulose) (HPC)) of the same compound?
Answer: 100 % of control

Question: And the T/C [1]?
Answer: 105 % of control and 92 % of control

Question: What does the source list for `CSC(=S)N/N=C/c1nccc2ccccc12`?
Answer: T/C (dose: 100.0 mg/kg/injection, schedule: Q01DX001 (ip), vehicle: saline with Tween-80): 112 % of control; T/C (dose: 200.0 mg/kg/injection, schedule: Q01DX001 (ip), vehicle: saline with Tween-80): 108 % of control; T/C (dose: 400.0 mg/kg/injection, schedule: Q01DX001 (ip), vehicle: saline with Tween-80): 116 % of control

Question: For `C#CC(O)(c1ccccc1)c1ccc(N2CCOCC2)cc1` (centres undefined), which T/C [5] is on record?
Answer: 95 % of control

Question: What about the T/C [6] of the same compound?
Answer: 98 % of control

Question: And the T/C (dose: 100.0 mg/kg/injection, schedule: Q01DX009 (ip), vehicle: saline with Tween-80)?
Answer: 98 % of control

Question: What about the T/C (dose: 200.0 mg/kg/injection, schedule: Q01DX009 (ip), vehicle: saline with Tween-80) of the same compound?
Answer: 97 % of control

Question: What does the source list for `CC(C)n1c(Cl)c(C=O)c2ccccc21`?
Answer: T/C (dose: 100.0 mg/kg/injection, schedule: Q01DX001 (ip), vehicle: Klucel (hydroxypropylcellulose) (HPC)): 94 % of control; T/C (dose: 200.0 mg/kg/injection, schedule: Q01DX001 (ip), vehicle: Klucel (hydroxypropylcellulose) (HPC)): 87 % of control; T/C (dose: 400.0 mg/kg/injection, schedule: Q01DX001 (ip), vehicle: Klucel (hydroxypropylcellulose) (HPC)): 98 % of control

Question: `Cc1ccc(S(=O)(=O)S(=O)(=O)c2ccc(C)cc2)cc1` was tested. Which T/C (dose: 100.0 mg/kg/injection, schedule: Q04DX002 (ip), vehicle: saline with Tween-80) did it give?
Answer: 96 % of control

Question: And the T/C (dose: 200.0 mg/kg/injection, schedule: Q04DX002 (ip), vehicle: saline with Tween-80)?
Answer: 99 % of control

Question: What about the T/C (dose: 400.0 mg/kg/injection, schedule: Q04DX002 (ip), vehicle: saline with Tween-80) of the same compound?
Answer: 104 % of control

Question: Which T/C (dose: 6.25 mg/kg/injection, schedule: Q01DX009 (ip), vehicle: saline with Tween-80) does the source give for `CCC(C)c1cnc(CC(C)C)c(=O)n1O` (centres undefined) here?
Answer: 90 % of control

Question: And the T/C (dose: 12.5 mg/kg/injection, schedule: Q01DX009 (ip), vehicle: saline with Tween-80)?
Answer: 91 % of control

Question: And the T/C [5]?
Answer: 94 % of control

Question: And the T/C [6]?
Answer: 100 % of control
